# Reference: ChEMBL document CHEMBL5634165, “Design, synthesis and activity evaluation of quinolinone derivatives as EZH2 inhibitors” (Bioorg Med Chem Lett, 2024)
# Biological target: Histone-lysine N-methyltransferase EZH2 (Homo sapiens, UniProt Q15910)
# Assay: Inhibition of EZH2 (unknown origin)
# Conditions: not given
# Sequence of Histone-lysine N-methyltransferase EZH2 (Homo sapiens, UniProt Q15910) (Q15910 whole entry): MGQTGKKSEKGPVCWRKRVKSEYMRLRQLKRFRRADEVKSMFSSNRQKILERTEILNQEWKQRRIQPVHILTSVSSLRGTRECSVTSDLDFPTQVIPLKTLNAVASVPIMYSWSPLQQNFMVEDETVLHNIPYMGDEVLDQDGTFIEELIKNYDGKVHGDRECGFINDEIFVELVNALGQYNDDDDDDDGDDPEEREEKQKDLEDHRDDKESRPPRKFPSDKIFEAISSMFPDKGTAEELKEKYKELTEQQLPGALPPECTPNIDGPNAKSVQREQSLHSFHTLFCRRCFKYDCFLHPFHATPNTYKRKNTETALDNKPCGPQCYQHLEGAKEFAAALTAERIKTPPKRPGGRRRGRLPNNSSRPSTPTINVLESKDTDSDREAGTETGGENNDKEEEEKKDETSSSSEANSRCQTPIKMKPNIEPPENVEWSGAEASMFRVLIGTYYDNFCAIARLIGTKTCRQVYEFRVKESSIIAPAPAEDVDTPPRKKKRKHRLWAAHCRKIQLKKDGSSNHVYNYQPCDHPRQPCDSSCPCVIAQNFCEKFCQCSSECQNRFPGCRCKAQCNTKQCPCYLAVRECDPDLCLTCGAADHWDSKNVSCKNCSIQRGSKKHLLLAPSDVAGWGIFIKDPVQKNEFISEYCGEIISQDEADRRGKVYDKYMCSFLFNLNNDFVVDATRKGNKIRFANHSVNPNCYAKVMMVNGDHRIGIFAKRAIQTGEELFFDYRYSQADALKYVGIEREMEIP
row,Compound,IC50 [µM]
1,Cc1cc(C)c(CNC(=O)c2cc(-c3ccc(-c4ccccc4)cc3)cc3[nH]c(=O)ccc23)c(=O)[nH]1,0.00167
2,Cc1cc(C)c(CNC(=O)c2cc(-c3cccc4ccccc34)cc3[nH]c(=O)ccc23)c(=O)[nH]1,0.00742
3,COc1c(C)cccc1-c1cc(C(=O)NCc2c(C)cc(C)[nH]c2=O)c2ccc(=O)[nH]c2c1,0.00421
4,Cc1cc(C)c(CNC(=O)c2cc(-c3cccnc3)cc3[nH]c(=O)ccc23)c(=O)[nH]1,0.00378
5,COc1cccc(OC)c1-c1cc(C(=O)NCc2c(C)cc(C)[nH]c2=O)c2ccc(=O)[nH]c2c1,0.00584
6,Cc1cc(C)c(CNC(=O)c2cc(-c3ccc(C(=O)O)cc3)cc3[nH]c(=O)ccc23)c(=O)[nH]1,0.00212

# Tested on: A549
# Assay: cells
# Conditions: Homo sapiens
# Description: Antiproliferative activity against human A549 cells by MTT assay
row,Compound,IC50 [µM]
1,CCN(c1cc(-c2ccc(CN3CCOCC3)cc2)cc(C(=O)NCc2c(C)cc(C)[nH]c2=O)c1C)C1CCOCC1 [TAZEMETOSTAT],15.8
2,Cc1cc(C)c(CNC(=O)c2cc(-c3ccc(-c4ccccc4)cc3)cc3[nH]c(=O)ccc23)c(=O)[nH]1,13.4
3,Cc1cc(C)c(CNC(=O)c2cc(-c3cccc4ccccc34)cc3[nH]c(=O)ccc23)c(=O)[nH]1,30.3
4,COc1c(C)cccc1-c1cc(C(=O)NCc2c(C)cc(C)[nH]c2=O)c2ccc(=O)[nH]c2c1,35.7
5,Cc1cc(C)c(CNC(=O)c2cc(-c3cccnc3)cc3[nH]c(=O)ccc23)c(=O)[nH]1,24.3
6,COc1cccc(OC)c1-c1cc(C(=O)NCc2c(C)cc(C)[nH]c2=O)c2ccc(=O)[nH]c2c1,38.3
7,Cc1cc(C)c(CNC(=O)c2cc(-c3ccc(C(=O)O)cc3)cc3[nH]c(=O)ccc23)c(=O)[nH]1,12.8

# Tested on: HeLa
# Assay: Inhibition of colony formation in human HeLa cells assessed as clone formation rate relative to control
# Type: functional
# Parameters: scale not given: the % may be the effect or the level left
# Conditions: not given
row,Compound,Activity [%]
1,CCN(c1cc(-c2ccc(CN3CCOCC3)cc2)cc(C(=O)NCc2c(C)cc(C)[nH]c2=O)c1C)C1CCOCC1 [TAZEMETOSTAT],47
2,Cc1cc(C)c(CNC(=O)c2cc(-c3ccc(C(=O)O)cc3)cc3[nH]c(=O)ccc23)c(=O)[nH]1,49

# Tested on: A549
# Assay: Induction of apoptosis in human A549 cells assessed as late apoptotic cells incubated for 24 hrs by Annexin V/PI staining based flow cytometry analysis (reference value: 5.03 %)
# Type: functional
# Conditions: not given
row,Compound,Activity [%]
1,CCN(c1cc(-c2ccc(CN3CCOCC3)cc2)cc(C(=O)NCc2c(C)cc(C)[nH]c2=O)c1C)C1CCOCC1 [TAZEMETOSTAT],52.6
2,Cc1cc(C)c(CNC(=O)c2cc(-c3ccc(-c4ccccc4)cc3)cc3[nH]c(=O)ccc23)c(=O)[nH]1,47.3

# Tested on: A549
# Assay: Induction of apoptosis in human A549 cells assessed as necrotic cells incubated for 24 hrs by Annexin V/PI staining based flow cytometry analysis (reference value: 1.35 %)
# Type: functional
# Conditions: not given
row,Compound,Activity [%]
1,CCN(c1cc(-c2ccc(CN3CCOCC3)cc2)cc(C(=O)NCc2c(C)cc(C)[nH]c2=O)c1C)C1CCOCC1 [TAZEMETOSTAT],10.8
2,Cc1cc(C)c(CNC(=O)c2cc(-c3ccc(-c4ccccc4)cc3)cc3[nH]c(=O)ccc23)c(=O)[nH]1,3.6

# Tested on: HeLa
# Assay: Antiproliferative activity against human HeLa cells by MTT assay
# Type: functional, cell-based
# Conditions: not given
row,Compound,IC50 [µM]
1,CCN(c1cc(-c2ccc(CN3CCOCC3)cc2)cc(C(=O)NCc2c(C)cc(C)[nH]c2=O)c1C)C1CCOCC1 [TAZEMETOSTAT],27.7
2,Cc1cc(C)c(CNC(=O)c2cc(-c3ccc(-c4ccccc4)cc3)cc3[nH]c(=O)ccc23)c(=O)[nH]1,29.4
3,Cc1cc(C)c(CNC(=O)c2cc(-c3cccc4ccccc34)cc3[nH]c(=O)ccc23)c(=O)[nH]1,> 50
4,COc1c(C)cccc1-c1cc(C(=O)NCc2c(C)cc(C)[nH]c2=O)c2ccc(=O)[nH]c2c1,> 50
5,Cc1cc(C)c(CNC(=O)c2cc(-c3cccnc3)cc3[nH]c(=O)ccc23)c(=O)[nH]1,47.4
6,COc1cccc(OC)c1-c1cc(C(=O)NCc2c(C)cc(C)[nH]c2=O)c2ccc(=O)[nH]c2c1,> 50
7,Cc1cc(C)c(CNC(=O)c2cc(-c3ccc(C(=O)O)cc3)cc3[nH]c(=O)ccc23)c(=O)[nH]1,20.4

# Tested on: HeLa
# Assay: Induction of apoptosis in human HeLa cells assessed as nectrotic cells by Annexin V/PI staining based flow cytometry analysis (reference value: 0.782 %)
# Type: functional
# Conditions: not given
row,Compound,Activity [%]
1,CCN(c1cc(-c2ccc(CN3CCOCC3)cc2)cc(C(=O)NCc2c(C)cc(C)[nH]c2=O)c1C)C1CCOCC1 [TAZEMETOSTAT],1.2

# Tested on: A549
# Assay: Induction of apoptosis in human A549 cells assessed as early apoptotic cells incubated for 24 hrs by Annexin V/PI staining based flow cytometry analysis (reference value: 1.17 %)
# Type: functional
# Conditions: not given
row,Compound,Activity [%]
1,CCN(c1cc(-c2ccc(CN3CCOCC3)cc2)cc(C(=O)NCc2c(C)cc(C)[nH]c2=O)c1C)C1CCOCC1 [TAZEMETOSTAT],2.3
2,Cc1cc(C)c(CNC(=O)c2cc(-c3ccc(-c4ccccc4)cc3)cc3[nH]c(=O)ccc23)c(=O)[nH]1,10.1

# Tested on: A549
# Assay: Induction of apoptosis in human A549 cells assessed as viable cells incubated for 24 hrs by Annexin V/PI staining based flow cytometry analysis (reference value: 91.6 %)
# Type: functional
# Conditions: not given
row,Compound,Activity [%]
1,CCN(c1cc(-c2ccc(CN3CCOCC3)cc2)cc(C(=O)NCc2c(C)cc(C)[nH]c2=O)c1C)C1CCOCC1 [TAZEMETOSTAT],34.3
2,Cc1cc(C)c(CNC(=O)c2cc(-c3ccc(-c4ccccc4)cc3)cc3[nH]c(=O)ccc23)c(=O)[nH]1,38.4

# Tested on: HeLa
# Assay: Induction of apoptosis in human HeLa cells assessed as early apoptotic cells by Annexin V/PI staining based flow cytometry analysis (reference value: 1.72 %)
# Type: functional
# Conditions: not given
row,Compound,Activity [%]
1,CCN(c1cc(-c2ccc(CN3CCOCC3)cc2)cc(C(=O)NCc2c(C)cc(C)[nH]c2=O)c1C)C1CCOCC1 [TAZEMETOSTAT],5.21

# Biological target: Histone-lysine N-methyltransferase EZH2 (Homo sapiens, UniProt Q15910, Y641F)
# Assay: Inhibition of EZH2 Y641F mutant (unknown origin)
# Conditions: not given
# Sequence of Histone-lysine N-methyltransferase EZH2 (Homo sapiens, UniProt Q15910, Y641F) (Q15910 whole entry Y641F): as the sequence (Q15910 whole entry) above, with Y641F counted along it
row,Compound,IC50 [µM]
1,Cc1cc(C)c(CNC(=O)c2cc(-c3ccc(-c4ccccc4)cc3)cc3[nH]c(=O)ccc23)c(=O)[nH]1,0.0074
2,Cc1cc(C)c(CNC(=O)c2cc(-c3cccc4ccccc34)cc3[nH]c(=O)ccc23)c(=O)[nH]1,0.0122
3,COc1c(C)cccc1-c1cc(C(=O)NCc2c(C)cc(C)[nH]c2=O)c2ccc(=O)[nH]c2c1,0.0104
4,Cc1cc(C)c(CNC(=O)c2cc(-c3cccnc3)cc3[nH]c(=O)ccc23)c(=O)[nH]1,0.00854
5,COc1cccc(OC)c1-c1cc(C(=O)NCc2c(C)cc(C)[nH]c2=O)c2ccc(=O)[nH]c2c1,0.00887
6,Cc1cc(C)c(CNC(=O)c2cc(-c3ccc(C(=O)O)cc3)cc3[nH]c(=O)ccc23)c(=O)[nH]1,0.00645

# Tested on: A549
# Assay: Inhibition of colony formation in human A549 cells assessed as clone formation rate relative to control
# Type: functional
# Parameters: concentration or dose not given beside the values
# Conditions: not given
row,Compound,Activity [%]
1,CCN(c1cc(-c2ccc(CN3CCOCC3)cc2)cc(C(=O)NCc2c(C)cc(C)[nH]c2=O)c1C)C1CCOCC1 [TAZEMETOSTAT],45
2,Cc1cc(C)c(CNC(=O)c2cc(-c3ccc(-c4ccccc4)cc3)cc3[nH]c(=O)ccc23)c(=O)[nH]1,42
3,Cc1cc(C)c(CNC(=O)c2cc(-c3ccc(C(=O)O)cc3)cc3[nH]c(=O)ccc23)c(=O)[nH]1,58

# Tested on: HeLa
# Assay: Induction of apoptosis in human HeLa cells assessed as viable cells by Annexin V/PI staining based flow cytometry analysis (reference value: 91.0 %)
# Type: functional
# Conditions: not given
row,Compound,Activity [%]
1,CCN(c1cc(-c2ccc(CN3CCOCC3)cc2)cc(C(=O)NCc2c(C)cc(C)[nH]c2=O)c1C)C1CCOCC1 [TAZEMETOSTAT],74

# Tested on: HeLa
# Assay: Induction of apoptosis in human HeLa cells assessed as late apoptotic cells by Annexin V/PI staining based flow cytometry analysis (reference value: 6.46 %)
# Type: functional
# Conditions: not given
row,Compound,Activity [%]
1,CCN(c1cc(-c2ccc(CN3CCOCC3)cc2)cc(C(=O)NCc2c(C)cc(C)[nH]c2=O)c1C)C1CCOCC1 [TAZEMETOSTAT],19.6
